Like-named read-outs stand apart in the source and are kept apart here.
What was measured:
[1] = Three-period crossover relative bioavailability study of methotrexate injectable solutions (Vibex device SC vs needle and syringe SC and IM); assay type: in vivo, human; conditions: for AUC(0-inf) / Tmax / AUC(0-t) / Cmax / half-life: human, plasma, sc, subcutaneous with Vibex device
Experimental: This was a randomized, open-label, 3-way crossover study involving 36 subjects. During the screening period, 1 of 4 MTX dose groups (10 mg, 15 mg, 20 mg, or 25 mg) were selected by the investigator for each subject based on the subject's current MTX dose at the time of enrollment and disease status (controlled RA vs. uncontrolled RA). […] One of six treatment sequences was possible as determined by the randomization schedule.
A total of approximately 200 ml blood was obtained from each subject over the course of the study.
Immediately following collection of each sample, each tube was gently inverted and placed in ice. Within 30 minutes of sample collection, the tubes were centrifuged at about 2000×G for 15 minutes at approximately 4° C. in order to separate the cells from the plasma. No aids for separation were used. The plasma was transferred with clean pipettes and placed in two polypropylene storage tubes in equal volumes. The storage tubes were labeled with the following information: protocol number, subject number, period number, relative time of sample, and analyte. The label was taped with clear tape to assure adherence of the label. The storage tubes were placed in a freezer at […] or below until they analyzed.
Briefly, in an ice water bath, 100 μL of the human K2EDTA plasma sample was placed in a 2-ml centrifuge tube. 10 μL of working standard solution and 10 μL of internal standard were added to the tubes. Afterwards, […] of 30% formic acid in water was added to the tubes and 0.2 ml of cold precipitation solution (acetonitrile) was added, vortexed and centrifuged. The supernatant was transferred to a 96-well plate for LC/MS/MS analysis. A volume of approximately 5 μL of the sample was injected into an LC/MS/MS system. The LC/MS/MS analysis was carried out with a Sciex API-4000 mass spectrometer coupled with a Shimadzu LC system. […] Calibration curves and quality control samples were included in each run. The ranges of the assay for both analyses were from 1 ng/ml to 1000 ng/ml, and the limit of quantification for both analyses was 1 ng/ml.
Concentration values that were reported as below the limit of quantification (BLQ) were treated as 0 for computing mean concentrations and in the concentration-time graphs. […] Concentrations in plasma were used as reported; but measurable concentrations observed after obtaining a BLQ result were excluded from analysis.
The Linear Up Log Down method (equivalent to the Linear Up/Log Down option in WinNonlin® Professional) was used in the computation of AUCs. The linear trapezoidal method was employed for any area where the concentration data was increasing (or constant) and the logarithmic trapezoidal method for any area where the concentration data was decreasing. Interpolation of concentration values was conducted using the linear interpolation rule for any time point surrounded by points of increasing (or constant) concentrations and the logarithmic interpolation rule for any time point surrounded by points of decreasing concentrations.
Pharmacokinetic parameters were calculated from the individual concentrations of MTX using noncompartmental methods. […] Secondary PK parameters calculated for each treatment were the following: time of maximum concentration (t . . . ), half-life (tin), Lambda z, and percent of area under the curve extrapolated.
Comparisons among treatments were evaluated by a mixed model analysis of the log-transformed, dose-normalized values of Cmax, AUC(0-t), and AUC(0-inf) with sequence, treatment, and treatment period as fixed effects and subject nested within sequence as a random effect. Using these models, the least-squares (LS) mean for the above PK parameters of each treatment were determined. The differences in LS means among treatments and the 90% confidence intervals (CIs) for the differences in the log-scale LS means among treatment were also obtained.

[2] = cited from earlier work; for average mean serum concentration: pediatric patients with juvenile rheumatoid arthritis

AUC(0-inf) ([1]; 10 mg, 10 mg single dose): ~1160 ng·h/mL | Tmax ([1]; 10 mg, 10 mg single dose): 1.33 h | AUC(0-t) ([1]; 10 mg, 10 mg single dose, read-out: AUC(0-24)): ~1150 ng·h/mL | AUC(0-t) ([1]; 10 mg, 10 mg single dose, read-out: AUC(0-t)): ~1140 ng·h/mL | Cmax ([1]; 10 mg, 10 mg single dose, subjects with rheumatoid arthritis): ~213 ng/mL | AUC(0-inf) ([1]; 15 mg, 15 mg single dose): ~1980 ng·h/mL | Cmax ([1]; 15 mg, 15 mg single dose): ~356 ng/mL | Tmax ([1]; 15 mg, 15 mg single dose): ~1.25 h | half-life ([1]; 15 mg, 15 mg single dose): ~3.68 h | AUC(0-t) ([1]; 15 mg, 15 mg single dose, read-out: AUC(0-24)): ~1950 ng·h/mL | AUC(0-t) ([1]; 15 mg, 15 mg single dose, read-out: AUC(0-t)): ~1940 ng·h/mL | AUC(0-inf) ([1]; 20 mg, 20 mg single dose): ~2220 ng·h/mL | Cmax ([1]; 20 mg, 20 mg single dose): ~417 ng/mL | Tmax ([1]; 20 mg, 20 mg single dose): ~1.17 h | half-life ([1]; 20 mg, 20 mg single dose): ~3.58 h | AUC(0-t) ([1]; 20 mg, 20 mg single dose, read-out: AUC(0-24)): ~2190 ng·h/mL | AUC(0-t) ([1]; 20 mg, 20 mg single dose, read-out: AUC(0-t)): ~2190 ng·h/mL | AUC(0-inf) ([1]; 25 mg, 25 mg single dose): ~2840 ng·h/mL | Cmax ([1]; 25 mg, 25 mg single dose): ~491 ng/mL | Tmax ([1]; 25 mg, 25 mg single dose): ~1.23 h | half-life ([1]; 25 mg, 25 mg single dose): ~3.78 h | AUC(0-t) ([1]; 25 mg, 25 mg single dose, read-out: AUC(0-24)): ~2800 ng·h/mL | AUC(0-t) ([1]; 25 mg, 25 mg single dose, read-out: AUC(0-t)): ~2800 ng·h/mL
SMILES: CN(Cc1cnc2nc(N)nc(N)c2n1)c1ccc(C(=O)N[C@@H](CCC(=O)O)C(=O)O)cc1 [methotrexate, N-[4-[[(2,4-diamino-6-pteridinyl)methyl]methylamino]benzoyl]-L-glutamic acid]
dose proportionality of observed plasma levels ([1]; single-dose administration, 10 mg to 25 mg dose range): increase linearly in a dose-proportionate manner | initial average distribution volume ([2]; after intravenous administration): about 0.18 L/Kg | absorption from parenteral routes of injection ([2]; in vivo): completely absorbed | average mean serum concentration ([2]; at about 1 hour): about 0.59 μM | average mean serum concentration ([2]; at about 2 hours): about 0.44 μM | average mean serum concentration ([2]; at about 3 hours): about 0.29 μM

— patent publication US20130058930A1 (ANTARES PHARMA, INC., priority 2011, published 2013)
